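Cultured in 96-well plates, cells were exposed to test compound for 48 hours across five concentrations. TGI denotes the concentration required for complete inhibition of growth.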
Experiments:
Assay in all cases: inhibition of tumour cell growth, NCI panel, 48 h
SF-295 CNS = system: SF-295 CNS
SK-MEL-2 melanoma = system: SK-MEL-2 melanoma
MCF7 breast = system: MCF7 breast
IGROV1 ovarian = system: IGROV1 ovarian
RXF 393 renal = system: RXF 393 renal
SK-MEL-5 melanoma = system: SK-MEL-5 melanoma
BT-549 breast = system: BT-549 breast
RPMI-8226 leukemia = system: RPMI-8226 leukemia
SF-539 CNS = system: SF-539 CNS
MOLT-4 leukemia = system: MOLT-4 leukemia
HS 578T breast = system: HS 578T breast
PC-3 prostate = system: PC-3 prostate
CAKI-1 renal = system: CAKI-1 renal
SR leukemia = system: SR leukemia
NCI-H226 lung = system: NCI-H226 lung
HOP-92 NSCLC = system: HOP-92 NSCLC
CCRF-CEM leukemia = system: CCRF-CEM leukemia
OVCAR-4 ovarian = system: OVCAR-4 ovarian
NCI-H23 lung = system: NCI-H23 lung
786-0 renal = system: 786-0 renal
ACHN renal = system: ACHN renal
MALME-3M melanoma = system: MALME-3M melanoma
MDA-MB-435 = system: MDA-MB-435
SNB-19 CNS = system: SNB-19 CNS
COLO 205 colon = system: COLO 205 colon
OVCAR-5 ovarian = system: OVCAR-5 ovarian
TK-10 renal = system: TK-10 renal
HOP-62 NSCLC = system: HOP-62 NSCLC
M14 melanoma = system: M14 melanoma
HCT-116 colon = system: HCT-116 colon
OVCAR-8 ovarian = system: OVCAR-8 ovarian
NCI-H522 lung = system: NCI-H522 lung
SNB-75 CNS = system: SNB-75 CNS
U251 CNS = system: U251 CNS
EKVX NSCLC = system: EKVX NSCLC
SK-OV-3 ovarian = system: SK-OV-3 ovarian
T-47D breast = system: T-47D breast
UACC-62 melanoma = system: UACC-62 melanoma
HT29 colon = system: HT29 colon
SW-620 colon = system: SW-620 colon
SN12C renal = system: SN12C renal
SF-268 CNS = system: SF-268 CNS
KM12 colon = system: KM12 colon
UACC-257 melanoma = system: UACC-257 melanoma
K-562 leukemia = system: K-562 leukemia
UO-31 renal = system: UO-31 renal
A549 NSCLC = system: A549 NSCLC
SK-MEL-28 melanoma = system: SK-MEL-28 melanoma
NCI/ADR-RES ovarian = system: NCI/ADR-RES ovarian
MDA-MB-231 breast = system: MDA-MB-231 breast
OVCAR-3 ovarian = system: OVCAR-3 ovarian
DU-145 prostate = system: DU-145 prostate
A498 renal = system: A498 renal
NCI-H460 lung = system: NCI-H460 lung
HCT-15 colon = system: HCT-15 colon
HCC-2998 colon = system: HCC-2998 colon
LOX IMVI melanoma = system: LOX IMVI melanoma

[N-]=[N+]=Nc1cc(=O)n(-c2ccccc2)c(=O)n1-c1ccccc1 was tested, and the TGI (SF-295 CNS) was over 100 µM, the TGI (SK-MEL-2 melanoma) was over 100 µM and the TGI (MCF7 breast) was over 100 µM. For the same compound, the TGI (IGROV1 ovarian) was over 100 µM, the TGI (RXF 393 renal) was over 100 µM and the TGI (SK-MEL-5 melanoma) was over 100 µM. For the same compound, the TGI (BT-549 breast) was over 100 µM, the TGI (RPMI-8226 leukemia) was over 100 µM and the TGI (SF-539 CNS) was over 100 µM. It also gave a TGI (MOLT-4 leukemia) of over 100 µM, a TGI (HS 578T breast) of over 100 µM and a TGI (PC-3 prostate) of over 100 µM. It also gave a TGI (CAKI-1 renal) of over 100 µM, a TGI (SR leukemia) of over 100 µM and a TGI (NCI-H226 lung) of over 100 µM. For the same compound, the TGI (HOP-92 NSCLC) was over 100 µM, the TGI (CCRF-CEM leukemia) was over 100 µM and the TGI (OVCAR-4 ovarian) was over 100 µM. It also gave a TGI (NCI-H23 lung) of over 100 µM, a TGI (786-0 renal) of over 100 µM and a TGI (ACHN renal) of over 100 µM. For the same compound, the TGI (MALME-3M melanoma) was over 100 µM, the TGI (MDA-MB-435) was over 100 µM and the TGI (SNB-19 CNS) was over 100 µM. The TGI (COLO 205 colon) was over 100 µM, the TGI (OVCAR-5 ovarian) was over 100 µM and the TGI (TK-10 renal) was over 100 µM. For the same compound, the TGI (HOP-62 NSCLC) was over 100 µM, the TGI (M14 melanoma) was over 100 µM and the TGI (HCT-116 colon) was over 100 µM. The TGI (OVCAR-8 ovarian) was over 100 µM, the TGI (NCI-H522 lung) was over 100 µM and the TGI (SNB-75 CNS) was over 100 µM. For the same compound, the TGI (U251 CNS) was over 100 µM, the TGI (EKVX NSCLC) was over 100 µM and the TGI (SK-OV-3 ovarian) was over 100 µM. The TGI (T-47D breast) was over 100 µM, the TGI (UACC-62 melanoma) was over 100 µM and the TGI (HT29 colon) was over 100 µM. For the same compound, the TGI (SW-620 colon) was over 100 µM, the TGI (SN12C renal) was over 100 µM and the TGI (SF-268 CNS) was over 100 µM. For the same compound, the TGI (KM12 colon) was over 100 µM, the TGI (UACC-257 melanoma) was over 100 µM and the TGI (K-562 leukemia) was over 100 µM. It also gave a TGI (UO-31 renal) of over 100 µM, a TGI (A549 NSCLC) of over 100 µM and a TGI (SK-MEL-28 melanoma) of over 100 µM. The TGI (NCI/ADR-RES ovarian) was over 100 µM, the TGI (MDA-MB-231 breast) was over 100 µM and the TGI (OVCAR-3 ovarian) was over 100 µM.

Compound O=C1c2scnc2-c2nccc3c2c1nc1ccccc13 has a TGI (SF-295 CNS) of 3.6 µM, a TGI (SK-MEL-2 melanoma) of 4.34 µM and a TGI (DU-145 prostate) of 3.14 µM. The TGI (MCF7 breast) was 1.03 µM, the TGI (IGROV1 ovarian) was over 100 µM and the TGI (A498 renal) was 2.52 µM. The TGI (RXF 393 renal) was 3.98 µM, the TGI (BT-549 breast) was 2.94 µM and the TGI (RPMI-8226 leukemia) was over 100 µM. The TGI (SF-539 CNS) was 1.54 µM, the TGI (MOLT-4 leukemia) was over 100 µM and the TGI (HS 578T breast) was over 100 µM. For the same compound, the TGI (PC-3 prostate) was over 100 µM, the TGI (CAKI-1 renal) was 3.83 µM and the TGI (SR leukemia) was over 100 µM. The TGI (HOP-92 NSCLC) was 4.85 µM, the TGI (CCRF-CEM leukemia) was over 100 µM and the TGI (OVCAR-4 ovarian) was 2.92 µM. It also gave a TGI (NCI-H460 lung) of 1.58 µM, a TGI (NCI-H23 lung) of 1.2 µM and a TGI (ACHN renal) of 2.15 µM. It also gave a TGI (MALME-3M melanoma) of 1.51 µM, a TGI (MDA-MB-435) of 0.307 µM and a TGI (COLO 205 colon) of 2.68 µM. It also gave a TGI (OVCAR-5 ovarian) of over 24.8 µM, a TGI (HCT-15 colon) of 1.28 µM and a TGI (HOP-62 NSCLC) of 8.18 µM. It also gave a TGI (OVCAR-8 ovarian) of 1.21 µM, a TGI (NCI-H522 lung) of over 100 µM and a TGI (SNB-75 CNS) of 1.92 µM. The TGI (EKVX NSCLC) was over 20.2 µM, the TGI (SK-OV-3 ovarian) was 23.4 µM and the TGI (T-47D breast) was 1.7 µM. It also gave a TGI (UACC-62 melanoma) of 1.45 µM, a TGI (HT29 colon) of over 19.9 µM and a TGI (HCC-2998 colon) of 2.48 µM. It also gave a TGI (SN12C renal) of 4.23 µM, a TGI (LOX IMVI melanoma) of 0.508 µM and a TGI (SF-268 CNS) of over 100 µM. The TGI (UACC-257 melanoma) was 1.69 µM, the TGI (K-562 leukemia) was over 100 µM and the TGI (UO-31 renal) was 2.74 µM. It also gave a TGI (A549 NSCLC) of 4.87 µM, a TGI (SK-MEL-28 melanoma) of 2.56 µM and a TGI (NCI/ADR-RES ovarian) of over 100 µM. For the same compound, the TGI (OVCAR-3 ovarian) was over 100 µM.

— PubChem BioAssay (NCI)
